The source of these data is patent publication US12295936B2, “Immunomodulating urea azalides” (Zoetis Services LLC, priority 2020, dated 2025).

Molecules are shown by their SMILES. Some results are limits rather than exact numbers.

What all share (test): LPS-stimulated whole bovine blood assay, MSD cytokine detection
Common to all, as to assay type: cell-based

The subject of test [1] is TNF-α. The note with it: Bos taurus, LPS-stimulated bovine whole blood; read-out: TNF-α (IC50 μM).
Test [2] relates to IL-1β. The note with it: overstimulation of IL-1β, LPS-stimulated bovine whole blood.
The test system of test [3] is IL-6. As to conditions: Bos taurus, LPS-stimulated bovine whole blood; read-out: IL-6 (IC50 μM). The text has this:
In order to correlate RNA sequencing data to cytokine changes the whole blood assay was utilized. […] The enhancement result represents an overall stimulation of cytokine levels due to cellular stress or potential toxicity with increasing concentrations of the compound, representing a typical bell shape response curve for immunomodulatory activity.

Turning to `CCCNC[C@]1(O)[C@H](C)O[C@@H](O[C@H]2[C@H](C)[C@@H](O[C@@H]3O[C@H](C)C[C@H](N(C)C(=O)N4Cc5ccccc5C4)[C@H]3O)[C@](C)(O)C[C@@H](C)CN[C@H](C)[C@@H](O)[C@](C)(O)[C@@H](CC)OC(=O)[C@@H]2C)C[C@@]1(C)OC` [Example I-7, N-((2S,3R,4S,6R)-2-(((2R,3S,4R,5R,8R,10R,11R,12S,13S,14R)-2-ethyl-3,4,10-trihydroxy-13-(((2R,4R,5S,6S)-5-hydroxy-4-methoxy-4,6-dimethyl-5-((propylamino)methyl)tetrahydro-2H-pyran-2-yl)oxy)-3,5,8,10,12,14-hexamethyl-15-oxo-1-oxa-6-azacyclopentadecan-11-yl)oxy)-3-hydroxy-6-methyltetrahydro-2H-pyran-4-yl)-N-methylisoindoline-2-carboxamide], the IC50 in test [1] was 8 µM; in test [3], 16 µM. For the same compound, in test [2], the “IL-1β OS of LPS” value was 6 µM.
For `CC[C@H]1OC(=O)[C@H](C)[C@@H](O[C@H]2C[C@@](C)(OC)[C@](O)(CN3CCN(C)CC3)[C@H](C)O2)[C@H](C)[C@@H](O[C@@H]2O[C@H](C)C[C@H](N(C)C(N)=O)[C@H]2O)[C@](C)(O)C[C@@H](C)CN[C@H](C)[C@@H](O)[C@]1(C)O` [Example J-5, 1-((2S,3R,4S,6R)-2-(((2R,3S,4R,5R,8R,10R,11R,12S,13S,14R)-2-ethyl-3,4,10-trihydroxy-13-(((2R,4R,5S,6S)-5-hydroxy-4-methoxy-4,6-dimethyl-5-((4-methylpiperazin-1-yl)methyl)tetrahydro-2H-pyran-2-yl)oxy)-3,5,8,10,12,14-hexamethyl-15-oxo-1-oxa-6-azacyclopentadecan-11-yl)oxy)-3-hydroxy-6-methyltetrahydro-2H-pyran-4-yl)-1-methylurea], in that order: greater than 500 µM, greater than 500 µM and greater than 500 µM.
For `CC[C@H]1OC(=O)[C@H](C)[C@@H](O[C@H]2C[C@@](C)(OC)[C@](O)(CN3CCN(C)CC3)[C@H](C)O2)[C@H](C)[C@@H](O[C@@H]2O[C@H](C)C[C@H](N(C)C(=O)Nc3ccc(N(C)C)cc3)[C@H]2O)[C@](C)(O)C[C@@H](C)CN[C@H](C)[C@@H](O)[C@]1(C)O` [Example J-6, 3-(4-(dimethylamino)phenyl)-1-((2S,3R,4S,6R)-2-(((2R,3S,4R,5R,8R,10R,11R,12S,13S,14R)-2-ethyl-3,4,10-trihydroxy-13-(((2R,4R,5S,6S)-5-hydroxy-4-methoxy-4,6-dimethyl-5-((4-methylpiperazin-1-yl)methyl)tetrahydro-2H-pyran-2-yl)oxy)-3,5,8,10,12,14-hexamethyl-15-oxo-1-oxa-6-azacyclopentadecan-11-yl)oxy)-3-hydroxy-6-methyltetrahydro-2H-pyran-4-yl)-1-methylurea], in that order: 225 µM, greater than 500 µM and greater than 500 µM.
Take `CC[C@H]1OC(=O)[C@H](C)[C@@H](O[C@H]2C[C@@](C)(OC)[C@H](O)[C@H](C)O2)[C@H](C)[C@@H](O[C@@H]2O[C@H](C)C[C@H](N(C)C(=O)N(C)c3ccccc3)[C@H]2O)[C@](C)(O)C[C@@H](C)CN[C@H](C)[C@@H](O)[C@]1(C)O` [Example B-3a, 1-((2S,3R,4S,6R)-2-(((2R,3S,4R,5R,8R,10R,11R,12S,13S,14R)-2-ethyl-3,4,10-trihydroxy-13-(((2R,4R,5R,6S)-5-hydroxy-4-methoxy-4,6-dimethyltetrahydro-2H-pyran-2-yl)oxy)-3,5,8,10,12,14-hexamethyl-15-oxo-1-oxa-6-azacyclopentadecan-11-yl)oxy)-3-hydroxy-6-methyltetrahydro-2H-pyran-4-yl)-1,3-dimethyl-3-phenylurea]: the figures for the IC50 in test [1] and in test [3] were 12 µM and 26 µM, respectively. Moreover, the “IL-1β OS of LPS” value in test [2] stood at 16 µM.

By IC50 is commonly meant the concentration that gives 50% inhibition.
